Values quoted from earlier work, collected in patent publication US20080161405A1, “Biguanide Composition and Method of Treatment and Prevention of Infections” (priority 2006, published 2008).
Converted amounts (≈) assume the structure as drawn.

Key:
[1] = tested on: acanthamoeba cysts and trophazoites
Fusarium Keratomycosis = conditions: 0.02% solution, rabbit model
Aspergillus keratitis = conditions: 0.02%
Acanthamoeba keratitis = conditions: case report, recurrence in the eye

Compound	minimum inhibitory concentration [1] [µg/mL]	reduction of fungal growth (Fusarium Keratomycosis)	effectiveness in experimental Aspergillus keratitis (Aspergillus keratitis)	treatment of recurrence of Acanthamoeba keratitis (Acanthamoeba keratitis)
CCCCC(CC)CNC(=N)NC(=N)NCCCCCCNC(=N)NC(=N)NCC(CC)CCCC (stereo not shown) [Alexidine, 1,1′-hexamethylene-bis[5-(2-ethylhexyl)biguanide]]	6.3 (≈ 12.4 µM)			
poly(hexamethylene biguanide) [polyhexamethylene biguanide]		effective at reducing fungal growth	moderately effective	successfully treated
